Assay results: the NIST ThermoML archive (doi:10.1021/je050460d)
± gives the expanded uncertainty stated by the source.

What was measured:
[1] = xn = mol fraction of the nth substance listed; details: 101 kPa, Liquid, x1 = 1; for viscosity: Capillary tube (Ostwald / Ubbelohde) method; for mass density: Vibrating tube method
[2] = 101.33 kPa, Liquid; for viscosity: Capillary tube (Ostwald / Ubbelohde) method; for mass density: Vibrating tube method
[3] = refractive index (Na D-line) (dimensionless); details: 101.33 kPa, Liquid, Standard Abbe refractometry

| SMILES | viscosity ([1]; 298.15 K) | viscosity ([1]; 313.15 K) | viscosity ([1]; 328.15 K) | mass density ([1]; 328.15 K) | viscosity ([1]; 343.15 K) | mass density ([1]; 343.15 K) | viscosity ([2]; 298.15 K) | mass density ([2]; 298.15 K) | mass density ([2]; 303.15 K) | mass density ([2]; 308.15 K) | viscosity ([2]; 313.15 K) | mass density ([2]; 313.15 K) | mass density ([2]; 318.15 K) | mass density ([2]; 323.15 K) | viscosity ([2]; 328.15 K) | mass density ([2]; 328.15 K) | mass density ([2]; 333.15 K) | mass density ([2]; 338.15 K) | viscosity ([2]; 343.15 K) | mass density ([2]; 343.15 K) | further results |
| --- | --- | --- | --- | --- | --- | --- | --- | --- | --- | --- | --- | --- | --- | --- | --- | --- | --- | --- | --- | --- | --- |
| O [water] + CCCCCCn1cc[n+](C)c1.[Cl-] | 0.895 ± 0.007 mPa·s | 0.658 ± 0.006 mPa·s | 0.519 ± 0.005 mPa·s | 985.68 ± 0.5 kg/m3 | 0.419 ± 0.004 mPa·s | 977.75 ± 0.5 kg/m3 |  |  |  |  |  |  |  |  |  |  |  |  |  |  |  |
| CCCCCCn1cc[n+](C)c1.[Cl-] [1-hexyl-3-methylimidazolium chloride] |  |  |  |  |  |  | 18089 ± 2400 mPa·s | 1039.67 ± 2.7 kg/m3 | 1036.81 ± 2.7 kg/m3 | 1033.96 ± 2.7 kg/m3 | 3429 ± 330 mPa·s | 1031.13 ± 2.7 kg/m3 | 1028.3 ± 2.7 kg/m3 | 1025.49 ± 2.7 kg/m3 | 942.1 ± 65 mPa·s | 1022.69 ± 2.7 kg/m3 | 1019.89 ± 2.7 kg/m3 | 1017.11 ± 2.7 kg/m3 | 339.5 ± 17 mPa·s | 1014.32 ± 2.7 kg/m3 | refractive index ([3]; 298.15 K): 1.5172 ± 0.001; refractive index ([3]; 303.15 K): 1.5158 ± 0.001; refractive index ([3]; 308.15 K): 1.51437 ± 0.001; refractive index ([3]; 313.15 K): 1.51294 ± 0.001; refractive index ([3]; 318.15 K): 1.51151 ± 0.001; refractive index ([3]; 323.15 K): 1.51009 ± 0.001; refractive index ([3]; 328.15 K): 1.50868 ± 0.001; refractive index ([3]; 333.15 K): 1.50727 ± 0.001; refractive index ([3]; 338.15 K): 1.50586 ± 0.001; refractive index ([3]; 343.15 K): 1.50445 ± 0.001 |
| CCCCCCCC[n+]1ccn(C)c1.[Cl-] [1-methyl-3-octylimidazolium chloride] |  |  |  |  |  |  | 20883 ± 2800 mPa·s | 1008.82 ± 2.7 kg/m3 | 1005.94 ± 2.6 kg/m3 | 1003.06 ± 2.6 kg/m3 | 4066 ± 400 mPa·s | 1000.2 ± 2.6 kg/m3 | 997.37 ± 2.6 kg/m3 | 994.5 ± 2.6 kg/m3 | 1091 ± 78 mPa·s | 991.67 ± 2.6 kg/m3 | 988.85 ± 2.6 kg/m3 | 986.04 ± 2.6 kg/m3 | 387.2 ± 20 mPa·s | 983.24 ± 2.6 kg/m3 | refractive index ([3]; 298.15 K): 1.50987 ± 0.001; refractive index ([3]; 303.15 K): 1.50838 ± 0.001; refractive index ([3]; 308.15 K): 1.50689 ± 0.001; refractive index ([3]; 313.15 K): 1.50543 ± 0.001; refractive index ([3]; 318.15 K): 1.50396 ± 0.001; refractive index ([3]; 323.15 K): 1.5025 ± 0.001; refractive index ([3]; 328.15 K): 1.50103 ± 0.001; refractive index ([3]; 333.15 K): 1.49956 ± 0.001; refractive index ([3]; 338.15 K): 1.4981 ± 0.001; refractive index ([3]; 343.15 K): 1.49664 ± 0.001 |
| O [water] + CCCCCCCC[n+]1ccn(C)c1.[Cl-] | 0.9 ± 0.01 mPa·s | 0.66 ± 0.01 mPa·s | 0.52 ± 0.01 mPa·s | 985.68 ± 0.5 kg/m3 | 0.42 ± 0.01 mPa·s | 977.75 ± 0.5 kg/m3 |  |  |  |  |  |  |  |  |  |  |  |  |  |  |  |
